The values that follow come from patent publication US6858428B2, “Human and animal cell culture medium containing antithrombin III for suppressing cell death” (Agency of Industrial Science and Technology, priority 1999, dated 2005).

The assay relates to hepatoma cell line HepG2. Put plainly: Survival of hepatoma cell line HepG2 in serum-free culture (viable cell count after 3 days). The class given is cell-based. The settings on record: for Survival rate: HepG2, DMEM without fetal bovine serum; for Effect in controlling cell death (in words): HepG2, serum-free medium, concentration not given. The protocol: Two mL cell suspension of hepatoma cell line HepG2 dispersed in trypsin (5×10^5 cells) were inoculated on six multi-well plates and pre-culture by using Dulbecco's modified Eagle medium (DMEM) containing 5% fetal bovine serum, 1.6 g/L sodium hydrogencarbonate, 0.584 g/L L-glutamine, and 0.08 g/L kanamycin sulfate at 37° C. in a 5% CO2 gas phase. […] The viable cell count was assayed after 3 days of culture.
The hepatoma cell line HepG2 was pre-cultured in the same manner as in Example 1. After 1 day, the broth was recovered, the cell surfaces were washed with serum-free medium, and the culture was continued for another 3 days with the addition of medium containing 5%, 0% fetal bovine serum, or 2 mL of fresh medium comprising antithrombin III added in concentrations ranging from 1 to 25 μg/mL to media containing no fetal bovine serum (0%). The viable cell count was assayed after 3 days of culture.
The hepatoma cell line HepG2 was pre-cultured in the same manner as in Example 1. After 1 day, the broth was recovered, the cell surfaces were washed with serum-free medium, and the culture was continued for another 3 days with the addition of medium containing 5%, 0% fetal bovine serum, or 2 mL of fresh medium comprising antithrombin III or any of-various synthetic protease inhibitors given in Table 4 added to media containing no fetal bovine serum (0%). The viable cell count was assayed after 3 days of culture.

`NCCc1ccc(S(=O)(=O)F)cc1` [AEBSF, reference compound]: the “Effect in controlling cell death (in words)” value (from here on “Effect”) was “effective in controlling cell death”. This compound yielded a Survival rate (additive 50 μg/ml) of 92.2%. Compound `N=C(N)c1ccc(CS(=O)(=O)F)cc1` [APMSF, reference compound] returned a Survival rate (additive 40 μg/ml) of 74.0%.

In turn, `CC(=O)N[C@@H](CC(C)C)C(=O)N[C@@H](CC(C)C)C(=O)N[C@H](C=O)CCCNC(=N)N` [Leupeptin, reference compound] had a Survival rate (additive 0.5 μg/ml) of 65.5%.

For `Cc1ccc(S(=O)(=O)N[C@@H](CCCCN)C(=O)CCl)cc1` [TLCK, reference compound], the “Effect” value is “effective in controlling cell death”. This compound showed a Survival rate (additive 50 μg/ml) of 89.3%.

With “IGF-1: growth factor reported as survival factor”, the Survival rate (additive 50 ng/ml) worked out at 45.3%. In the case of “Insulin: hormone reported as survival factor”, the Survival rate (additive 0.1 μM) is reported as 53.0%. Consider “Orosomucoide: typical serum protein used for comparison”, for which the “Effect” value is “virtually no effect in controlling cell death”. In addition, the Survival rate (additive 48.8 μg/ml) worked out at 61.5%. For “PDGF-AA: growth factor reported as survival factor”, under “additive 50 ng/ml”, the Survival rate came to 54.0%. In the case of “Transferrin: typical serum protein used for comparison”, the “Effect” value was “virtually no effect in controlling cell death”. For the same compound, the Survival rate (additive 150 μg/ml) amounted to 62.8%. “aFGF: growth factor reported as survival factor” had a Survival rate (additive 10 ng/ml) of 59.6%. Same read-out and setting: with “bFGF: growth factor reported as survival factor” the figure was 55.2%. As for “α 1-antitrypsin: typical serum protein used for comparison”, the “Effect” value is recorded as “virtually no effect in controlling cell death”. The compound further gave a Survival rate (additive 150 μg/ml) of 72.7%.
